Measured values published in article PMC10945555, “Improving Activity of New Arylurea Agents against Multidrug-Resistant and Biofilm-Producing Staphylococcus epidermidis” (ACS Medicinal Chemistry Letters, 2024).
Values after ≈ are worked out from the molar mass of the structure shown. Read-outs that look alike come from different tables or passages of the source.

How the values were obtained:
[1] = system: Staphylococcus epidermidis ATCC 12228; test: MIC, broth microdilution, MSSE reference strain; type: cell-based
Source text: (§1) These strains included susceptible, multidrug-resistant, and biofilm-producing strains of S. epidermidis and S. aureus (MSSE, MDR/BPSE, and MDR/BPSA, respectively). The cornerstone antibiotic linezolid served as a positive control (Table 1). The impact of structural modifications at the aryloxy fragment and the aromatic moiety bound to the propyl linker on the inhibitory activity was initially investigated. […] Further optimization focused on evaluating the impact of the type of substituent and its position on the arylsulfonamide fragment’s activity.
(§2) 2 Biological assay protocols
(§3) Microbiological tests were carried out under aseptic conditions in a laminar chamber of the 2nd […]
(§4) (BioTectum 1.2, Alchem Poland). The assessment of antimicrobial activity was carried out for final compounds in the form of free bases, soluble in DMSO (Merck, Germany), at the initial […]
(§5) concentration of 1 mg/mL. […]
(§6) were provided by Cayman Chemical, USA.
(§7) The activity of all newly synthesized compounds was tested in vitro on a panel of selected reference strains from the American Type Culture Collection (ATCC) of Gram-positive […]
(§8) 2.2 Effect of evaluated compounds on planktonic cells
(§9) The susceptibility of three reference bacterial strains (Staphylococcus epidermidis ATCC […]
(§10) Table S1) and 81 clinical MDR S. epidermidis (Table S2) to the tested compounds was assessed by determining the MIC value (Minimal Inhibitory Concentration) by microdilution in a liquid medium in 96-well flat-bottom cell culture plates (Nest Biotechnology Scientific, USA). The antibacterial properties of the compo unds were tested in the concentration range from 50 µg/mL to 0.1 µg/mL by making a series of double dilutions of the compound in liquid Mueller -Hinton II Broth Cation Adjusted (MHB II, BBL TM, USA) according to the European Committee on […]
(§11) Antimicrobial Susceptibility Testing guidelines (EUCAST).2,3 The determinations were performed twice. The MIC50 and MIC90 values were determined for each of the tested

[2] = system: Staphylococcus epidermidis ATCC 35984; test: MIC, broth microdilution, MDR/BPSE reference strain; type: cell-based; conditions: for MIC: Staphylococcus epidermidis, ATCC35984, read-out: MIC MDR/BPSE, Staphylococcus epidermidis ATCC 35984
Source text: as §1, §2, §3, §4, §5, §6, §7, §8, §9, §10, §11

[3] = system: Staphylococcus aureus ATCC BAA-976; test: MIC, broth microdilution, MDR/BPSA reference strain; type: cell-based
Source text: as §1, §2, §3, §4, §5, §6, §7, §8, §9, §10, §11

[4] = system: H9c2 cells; test: Cytotoxicity, MTT assay, cardiomyocytes; type: cell-based; conditions: Rattus norvegicus, 24 h, n = 3
Method: (§12) The following cell models were used in the research: rat cardiomyocytes (H9c2 line) and human skin fibroblasts (BJ line). All cell lines used in the work are commercially available and were purchased from ATCC banks (the American Type Culture Collection, Manassas, VI, USA). Cell cultures were carried out in an incubator under standard conditions (37°C, 5% CO 2).
(§13) Culture media (Dulbecco's Modified Eagle's Medium -DMEM (H9c2) and Eagle's Minimum Essential Medium-EMEM (BJ) were supplemented with 10% bovine serum and a 1% mixture of penicillin and streptomycin antibiotics. […]
(§14) doxorubicin (a cytotoxic drug) were used as reference and positive control, respectively. […]
(§15) incubated with studied compound in appropriate concentration for next 24 h. Then MTT solution (5 mg/mL) was transferred into culture medium of incubated cells. After 3 h, once dark crystals of formazan were produced in cells, medium was aspirated and 100 μ L of DMSO was added to dissolve formazan. Absorbance of DMSO solution was read on a multiwell plate reader (Spectra Max iD3, Molecular Devices) at 570 nm. In order to determine viability, absorbance of experimental wells was divided by absorbance of contro l well (not treated) and multiplied by 100 (%). Three separate experiments were performed. IC 50 was calculated using non-linear regression method in OriginPro software. […]

[5] = system: BJ cells; test: Cytotoxicity, MTT assay, skin fibroblasts; type: cell-based, human; conditions: Homo sapiens, MTT, 24 h, n = 3
Method: as §12, §13, §14
as §15, with “solution” for “incubated with studied compound in appropriate concentration for next 24 h. Then MTT solution”

[6] = system: Acinetobacter baumannii ATCC 19606; test: MIC, Gram-negative reference strain; type: cell-based; conditions: Acinetobacter baumannii, ATCC19606
Method: as §2, §3, §4, §5, §6, §7, §8, §9, §10, §11

[7] = system: Escherichia coli ATCC 25922; test: MIC, Gram-negative reference strain; type: cell-based; conditions: Escherichia coli, ATCC25922
Method: as §2, §3, §4, §5, §6, §7, §8, §9, §10, §11

[8] = system: Pseudomonas aeruginosa ATCC 27853; test: MIC, Gram-negative reference strain; type: cell-based; conditions: Pseudomonas aeruginosa, ATCC27853, read-out: MIC P. aeruginosa
Method: as §2, §3, §4, §5, §6, §7, §8, §9, §10, §11

[9] = system: Gram-negative bacteria; test: MIC, tested Gram-negative bacteria (hit screening); type: cell-based
Source text: (§16) Despite numerous efforts to ensure sterility and encourage the prudent use of currently available antibiotics, morbidity rates persist at high levels. These findings underscore the pressing need for the development of a novel class of potential antimicrobial agents targeting multidrug-resistant and biofilm-forming S. epidermidis. […] Herein we present the discovery of new aryloxy[1-(thien-2-yl)propyl]piperidines with improved antibacterial activity compared to compound I, evaluated against a spectrum of clinical S. epidermidis isolates (81 strains), including multidrug-resistant and biofilm-forming strains. We also determined their bacteriostatic/bactericidal properties and conducted a real-time analysis of bacterial growth. Finally, we evaluated the ability of the most promising compound, 25, in terms of its activity and safety over mammalian cell lines, to disrupt the staphylococcal cell membranes of clinical S. epidermidis.

[10] = system: reference susceptible and multidrug-resistant S. epidermidis and S. aureus strains; test: MIC, reference S. epidermidis and S. aureus strains (hit screening); type: cell-based
Source text: as §16

[11] = ATCC12228, Staphylococcus epidermidis ATCC 12228, read-out: MIC MSSE
[12] = ATCCBAA976, Staphylococcus aureus ATCC BAA-976, read-out: MIC MDR/BPSA
[13] = Staphylococcus aureus, ATCCBAA976, read-out: MIC MDR/BPSA

Structure (SMILES) | MIC [1, 11] [mg/L] | MIC [2] [mg/L] | MIC [3, 12] [mg/L] | MIC [3, 13] [mg/L] | also measured
O=S(=O)(NC1CCN(CCC(Oc2ccc(C(F)(F)F)cc2)c2cccs2)CC1)c1ccc(F)cc1 (stereo not shown) [Compound 22] | 6.25 (≈ 11.5 µM) | 1.6 (≈ 2.95 µM) | 6.25 (≈ 11.5 µM) | – | –
COc1cccc2c1C(=O)c1c(O)c3c(c(O)c1C2=O)C[C@@](O)(C(=O)CO)C[C@@H]3O[C@H]1C[C@H](N)[C@H](O)[C@H](C)O1 [doxorubicin, reference compound] | – | – | – | – | IC50 [4]: 0.39 mg/L (≈ 0.718 µM); IC50 [5]: 0.39 mg/L (≈ 0.718 µM)
O=C(Nc1ccccc1)NC1CCN(CCC(Oc2ccc(C(F)(F)F)cc2)c2cccs2)CC1 (stereo not shown) [Compound 24] | – | 6.25 (≈ 12.4 µM) | – | 6.25 (≈ 12.4 µM) | MIC ([1]; ATCC12228, read-out: MIC MSSE): 6.25 mg/L (≈ 12.4 µM)
Cc1cccc(S(=O)(=O)NC2CCN(CCC(Oc3ccc(C(F)(F)F)cc3)c3cccs3)CC2)c1 (stereo not shown) [Compound 19] | 50 (≈ 92.8 µM) | 0.2 (≈ 0.371 µM) | 50 (≈ 92.8 µM) | – | –
O=S(=O)(NC1CCN(CCC(Oc2ccc(C(F)(F)F)cc2)c2cccs2)CC1)c1ccccc1Cl (stereo not shown) [Compound 16] | 50 (≈ 89.4 µM) | 6.25 (≈ 11.2 µM) | 50 (≈ 89.4 µM) | – | –
O=S(=O)(NC1CCN(CCC(Oc2ccc(C(F)(F)F)cc2)c2cccs2)CC1)c1ccc(Cl)cc1 (stereo not shown) [Compound 23] | 12.5 (≈ 22.4 µM) | 0.2 (≈ 0.358 µM) | 6.25 (≈ 11.2 µM) | – | –
O=S(=O)(NC1CCN(CCC(Oc2cccc(C(F)(F)F)c2)c2cccs2)CC1)c1cccc(Cl)c1 (stereo not shown) [Compound 13] | – | 3.12 (≈ 5.59 µM) | – | 3.12 (≈ 5.59 µM) | MIC ([1]; ATCC12228, read-out: MIC MSSE): 3.12 mg/L (≈ 5.59 µM)
O=C(Nc1ccc(Cl)cc1)NC1CCN(CCC(Oc2ccc(C(F)(F)F)cc2)c2cccs2)CC1 (stereo not shown) [Compound 27] | 50 (≈ 92.9 µM) | ≥ 6.25 | – | – | –
O=S(=O)(NC1CCN(CCC(Oc2ccc(C(F)(F)F)cc2)c2cccs2)CC1)c1ccccc1 (stereo not shown) [Compound 15] | 12.5 (≈ 23.8 µM) | 6.25 (≈ 11.9 µM) | 12.5 (≈ 23.8 µM) | – | –
O=S(=O)(NC1CCN(CCC(Oc2cccc(C(F)(F)F)c2)c2ccccc2)CC1)c1cccc(Cl)c1 (stereo not shown) [I] | – | 3.12 (≈ 5.65 µM) | – | 3.12 (≈ 5.65 µM) | MIC ([1]; ATCC12228, read-out: MIC MSSE): 3.12 mg/L (≈ 5.65 µM); MIC MDR/BPSE ([2]; Staphylococcus epidermidis ATCC 35984): 6.25 mg/L (≈ 11.3 µM); MIC [6]: 50 mg/L (≈ 90.4 µM); MIC [7]: 50 mg/L (≈ 90.4 µM); MIC [8]: 50 mg/L (≈ 90.4 µM); activity towards Gram-negative bacteria [9]: Not active; MIC ([9]; tested Gram-negative bacteria): ≥ 25 mg/L; MIC [10]: 3.12 to 6.25 mg/L (≈ 5.65 to 11.3 µM)
O=S(=O)(NC1CCN(CCC(Oc2ccc(C(F)(F)F)cc2)c2cccs2)CC1)c1cccc(F)c1 (stereo not shown) [Compound 17] | 12.5 (≈ 23 µM) | 6.25 (≈ 11.5 µM) | – | 6.25 (≈ 11.5 µM) | –
O=C(Nc1ccc(F)cc1)NC1CCN(CCC(Oc2ccc(C(F)(F)F)cc2)c2cccs2)CC1 (stereo not shown) [Compound 26] | 50 (≈ 95.9 µM) | ≥ 6.25 | – | – | –
COc1cccc(S(=O)(=O)NC2CCN(CCC(Oc3ccc(C(F)(F)F)cc3)c3cccs3)CC2)c1 (stereo not shown) [Compound 20] | 50 (≈ 90.1 µM) | 0.1 (≈ 0.18 µM) | 25 (≈ 45.1 µM) | – | –
